Experimental findings from patent US20230301981A1, “TLR7/8 ANTAGONISTS AND USES THEREOF” (Merck Patent GmbH, priority 2020, published 2023) are described below.

Molecules are shown by their SMILES. Several values for one entry are separate records, joined by “and”; a condition that tells them apart may be missing. Equal values may be shown once. Read-outs that look alike come from different tables or passages of the source.

The target of the assay is T1, TLR9 (Mus musculus, UniProt Q9EQU3).
T1 construct: from tissue; host or cells: primary splenocytes from C57BL-6/N mouse spleen
T1 sequence (Q9EQU3 26-1032): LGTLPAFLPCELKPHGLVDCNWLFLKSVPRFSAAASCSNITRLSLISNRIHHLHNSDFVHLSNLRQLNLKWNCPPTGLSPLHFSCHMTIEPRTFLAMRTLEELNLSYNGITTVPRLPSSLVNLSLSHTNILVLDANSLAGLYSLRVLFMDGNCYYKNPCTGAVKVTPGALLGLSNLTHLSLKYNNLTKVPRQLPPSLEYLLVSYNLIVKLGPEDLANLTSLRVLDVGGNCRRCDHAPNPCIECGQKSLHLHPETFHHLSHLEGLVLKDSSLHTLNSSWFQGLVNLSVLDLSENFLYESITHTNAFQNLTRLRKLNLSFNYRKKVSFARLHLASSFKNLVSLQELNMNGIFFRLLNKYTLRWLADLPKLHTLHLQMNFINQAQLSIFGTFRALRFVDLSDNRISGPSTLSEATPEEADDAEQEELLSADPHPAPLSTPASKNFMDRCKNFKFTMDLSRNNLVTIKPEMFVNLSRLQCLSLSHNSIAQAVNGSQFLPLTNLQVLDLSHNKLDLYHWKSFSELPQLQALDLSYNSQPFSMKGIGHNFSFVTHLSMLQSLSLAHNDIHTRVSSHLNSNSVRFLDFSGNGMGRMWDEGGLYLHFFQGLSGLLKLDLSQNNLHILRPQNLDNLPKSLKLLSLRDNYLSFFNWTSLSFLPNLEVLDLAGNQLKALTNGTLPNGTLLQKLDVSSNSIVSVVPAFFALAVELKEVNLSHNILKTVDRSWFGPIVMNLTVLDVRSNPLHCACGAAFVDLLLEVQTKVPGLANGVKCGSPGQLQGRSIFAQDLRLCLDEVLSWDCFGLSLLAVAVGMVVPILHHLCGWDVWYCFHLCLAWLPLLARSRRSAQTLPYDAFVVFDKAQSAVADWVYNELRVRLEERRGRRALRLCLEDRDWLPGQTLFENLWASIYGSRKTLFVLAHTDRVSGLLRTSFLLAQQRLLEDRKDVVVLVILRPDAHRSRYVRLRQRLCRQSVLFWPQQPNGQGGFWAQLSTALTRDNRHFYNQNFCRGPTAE
Nature of the assay: Mouse spleenocytes cell assay with CpG stimulation (IL6/TNFa ELISA). It is filed as cell-based. As to conditions: CpG 5 µM. The method, then: Mouse spleen from healthy, female C57BL-6/N mice (n=2) were taken out in 50 mL tubes with B-Cell medium and the experiment started directly. The spleen was grinded through a cell strainer by using the punch of a syringe into a 50 mL Falcon tube. Cell strainer and punch were flushed with appropriate amount of washing buffer to avoid cellloss. Then the spleenocytes were centrifuged for 10 min at 552 xg (1600 rpm), 4° C. The erythrocytes within the cell pellet were lysed by resuspending pellet in 1 ml ACK-lysing buffer (4° C.) and incubate for 1 minute at RT. Lysis was stopped by filling up to 50 ml with washing buffer and centrifuged for 10 min at 552 xg (1600 rpm), 4° C. Cells were washed in B-cell Media (IMDM + 25 mM HEPES + 10%FCS + pen/strep + NEAA 10 nM + Sodium Pyrovat 100 nM, β-Mercaptoethanol 50 nM), counted and seeded in a density of 148500 cells per well in a 96 well MTP (135µl of 1,1×106c/ml). The cells were pre-treated with antimalarials (15 µL, in different concentrations according to dose-response curve ranging from 100 pM-50 µM)) for 30 min, at 37° C., 5% CO2, followed by TLR⅞ stimulation with R848 (15 µl, final concentration of 1 µM) or a TLR9 stimulation with CpG (15 µl, final concentration of 5 µM) and incubated at 37° C., 5% CO2 for 18 - 24 hours.
Supernatants were collected and transferred into a 96 well round bottom MTP and stored at -20° C. until ELISA formouse IL6 and mouse TNFa were performed. Plates were read directly after assay on an Envision Multiplate reader. Results were analyzed with GraphPadPrism V8.0. Plot the calculated amount of produced IL6 or TNFa in pg/ml on y-axis and the concentration of each MSC concentration at half logarhythmic scaling on the x-axis to achieve a dose-response curve. Determine IC50 values using Graph Pad Prism analysis software (Transform Y values using “X=Log(X) and log inhibitor vs. response; Variable slope (four parameters).
In general terms: An ELISA detects its analyte on a solid surface through an enzyme-linked reagent.

Setting [1] is: IL6 readout, read-out: IC50 TLR9 (IL6 readout) mouse spleenocytes (n=2).
The mark [2] stands for this setting: TNF readout, read-out: IC50 TLR9 (TNF readout) mouse spleenocytes (n=2).

Regarding `COc1ccc2nc3cc(Cl)ccc3c(Nc3cc(CN4CCCC4)c(O)c(CN4CCCC4)c3)c2n1` [Compound 1, Pyronaridine], the IC50 is 14 nM and 35 nM under setting [1]; 21 nM and 140 nM under setting [2].
With `CCN(CCO)CCCC(C)Nc1ccnc2cc(Cl)ccc12` (centres unmarked) [HYDROXY-CHLOROQUINE HCQ, hydroxychloroquine], the 50% inhibitory concentration (IC50) was 15400 nM and 1700 nM under setting [1]; 11500 nM under setting [2]. In addition, the “IC50 TLR9 (TNF readout) mouse spleenocytes (n=2)” value (TNF readout) was “no suppr”.

Broadly, the IC50 is the midpoint of a concentration-inhibition curve.
